Test results taken from US20120238606A1, “[…] AMINE SALTS, PREPARATION METHOD AND USE THEREOF” (JIANGSU HANS PHA[…] CO., LTD., priority 2009, published 2012).

Tests used:
[1] = tested on: angiotensin II-induced hypertensive dogs; assay: Effect on blood pressure in angiotensin II-induced hypertensive dogs; format: in vivo; conditions: male Beagle dogs, equimolar dose ig (1.10 mg/kg example 1; 1.23 mg/kg example 2) in 0.5% methyl cellulose, mean±S.E.
Protocol: The effect of compounds of the present invention on blood pressure in angiotensin II-induced hypertensive dogs was investigated.
In this study, male Beagle dogs (weighting 12.0-14.7 kg, KITAYAMA LABES, CO., LTD.) were employed. The dogs were anesthetized by pentobarbital solution (50 mg/kg, ip) and prepared for surgery. The surgery procedure was as follows: made an endotracheal intubation for controlling the breathing, shaved the regions of femoral and back of the neck, fixed the dogs at the dorsal position, used isodine solution (MEIJI SEIKA KAISHA, LTD.) to sterilize the skins, made an incision through the skin on the right femoral region, separated the arteria femoralis, occluded blood flow to allow introduction of a mirror catheter (5 F, MILLER INDUSTRIES) and polyurethane tube into the aorta and vein, respectively, passed the tubes through the subcutaneous slits and fixed the tubes at the back, closed the wall and sutured the skin, and injected intramuscularly the penicillin G potassium (MEIJI SEIKA KAISHA, LTD., 40,000 units) for sterilization. For post-operative care, animals were administered 40,000 units penicillin G potassium intramuscularly once daily for 3 days. There was a recovery period before study ongoing.
The animals were singly housed in a small metabolic cage and fasted during the experiment. The mirror catheter was linked to a transducer unit (MILLER INDUSTRIES). Through a DC amplifier (N4777, NEC San-ei Instruments) and a blood pressure monitor amplifier (N4441, NEC San-ei Instruments), the blood pressure was recorded by a recorder (RECTI-HORIZ 8 K, NEC San-Ei Instruments). In order to establish a hypertension model, the dogs were injected intravenously 100 ng/kg AII for 3 or 4 times before dosing test articles. The test articles were an equal molar dose suspended in 0.5% methyl cellulose, and the dosing volume for all animals was 2 mL/kg. After administration, the blood pressure was measured by the monitor. The dog blood pressure inhibition ratios after dosing were calculated, and the results were expressed as mean±S.E. (Table 2).

[2] = tested on: angiotensin II-induced hypertensive rats; assay: Effect on blood pressure in angiotensin II-induced hypertensive rats; format: in vivo, Sprague-Dawley rats; conditions: male SD rats, single equimolar dose ig (0.11 mg/kg example 1; 0.123 mg/kg example 2) in 0.5% methyl cellulose, AII 100 ng/kg iv again after 24 hours, Mean±S.E.
Protocol: The effect of compounds of the present invention on blood pressure in angiotensin II-induced hypertensive rats was investigated.
Male Sprague-Dawley rats (9-11 weeks old, CLEA Japan, Inc.) were anesthetized by pentobarbital solution (50 mg/kg, ip.) and prepared for surgery. The surgery procedure was as follows: made an incision through the skin on the abdomen and abdominal wall, separated the aorta and vein from the vena cava, occluded blood flow to allow introduction of a polyethylene (PE) tube filled with normal saline containing heparin (200 U/mL) into the vessel, passed the PE tube through the subcutaneous slits, and fixed the PE tube at the back of the neck. After recovery period, the rats were induced hypertension by intravenous administration of 100 ng/kg angiotensin II (AII). The PE tube was combined with a pressure transducer coupled to a blood pressure monitor amplifier (2238, NEC San-ei Instruments). The animals were enrolled based on average systolic blood pressure over 24 hours. All the animals with average systolic blood pressure less than 140 mmHg were excluded from this study, and the others were divided into 2 groups. […] The rats were injected intravenously AII again after 24 hours, and their blood pressure were measured by the monitor. The rat blood pressure inhibition ratios after dosing were calculated. […] The results were expressed as Mean±S.E. (Table 1).

## CCOc1nc2cccc(C(=O)O)c2n1Cc1ccc(-c2ccccc2-c2noc(=O)[nH]2)cc1.C[N+](C)(C)CCO [Product of example 2, Azilsartan choline]
[1]
  Inhibition ratios (%) 10 hr post dosing: 79.3 ± 8.6%
  Inhibition ratios (%) 24 hr post dosing: 59.5 ± 6.3%
[2]
  Inhibition ratios (%) (blood pressure inhibition ratio after dosing): 54.3 ± 5.1%

## CCOc1nc2cccc(C(=O)O)c2n1Cc1ccc(-c2ccccc2-c2noc(=O)[nH]2)cc1.NCCO [Product of example 1, Azilsartan ethanolamine]
[1]
  Inhibition ratios (%) 10 hr post dosing: 82.7 ± 7.3%
  Inhibition ratios (%) 24 hr post dosing: 61.6 ± 4.8%
[2]
  Inhibition ratios (%) (blood pressure inhibition ratio after dosing): 57.4 ± 6.7%
